Where two headings read alike, the source gives them in different places.
What was measured:
Format in all cases: cell-based
[1] = tested on: leukemia cancer cell lines; assay: NCI-60 cytotoxicity, leukemia; conditions: Homo sapiens
Protocol: (§1) A number of the synthesized compounds (i.e. Tb1-Tb23) were evaluated for their activity against a variety of cancer cell lines, namely the NCI-60 human cancer cell line panel representing leukemia, melanoma, lung, colon, brain, ovary, breast, prostate and kidney types of cancer through the In Vitro Cell Line Screening Project (IVCLSP) of the National Cancer Institute (NCI), and a summary of the results is shown in Table 1. […] As there was interest in the activity in certain other cell lines, these and the remaining compounds (Tb1-Tb41, PTb-D42 and PTb-D43) were subjected to further testing against MES SA (uterine sarcoma cells), MES SA DX (multidrug resistant uterine sarcoma cells), and HEK 293T (human embryonic kidney cells). […] Tubulysins are known to be substrates for Pgp pumps (Xiangming, et al., 2013; Kaur, et al., 2006; Szakacs, et al., 2006) as supported by the observed low activities of all tubulysins tested except Tb28, Tb32 and Tb33.

[2] = tested on: non-small cell lung cancer cell lines; assay: NCI-60 cytotoxicity, non-small cell lung cancer; conditions: Homo sapiens
Protocol: as §1

[3] = tested on: colon cancer cell lines; assay: NCI-60 cytotoxicity, colon cancer; conditions: Homo sapiens
Protocol: as §1

[4] = tested on: CNS cancer cell lines; assay: NCI-60 cytotoxicity, CNS cancer; conditions: Homo sapiens
Protocol: as §1

[5] = tested on: melanoma cell lines; assay: NCI-60 cytotoxicity, melanoma; conditions: Homo sapiens
Protocol: as §1

[6] = tested on: ovarian cancer cell lines; assay: NCI-60 cytotoxicity, ovarian cancer; conditions: Homo sapiens
Protocol: as §1

[7] = tested on: renal cancer cell lines; assay: NCI-60 cytotoxicity, renal cancer; conditions: Homo sapiens
Protocol: as §1

[8] = tested on: prostate cancer cell lines; assay: NCI-60 cytotoxicity, prostate cancer; conditions: Homo sapiens
Protocol: as §1

[9] = tested on: breast cancer cell lines; assay: NCI-60 cytotoxicity, breast cancer; conditions: Homo sapiens
Protocol: as §1

[10] = tested on: MES SA (uterine sarcoma cells); assay: Cytotoxic assay (CellTiter-Glo, 72 h), MES SA; conditions: Homo sapiens, MES-SA, read-out: IC50 MES SA
[11] = tested on: MES SA DX (multidrug resistant uterine sarcoma cells); assay: Cytotoxic assay (CellTiter-Glo, 72 h), MES SA DX; conditions: Homo sapiens
[12] = tested on: HEK 293T (human embryonic kidney cells); assay: Cytotoxic assay (CellTiter-Glo, 72 h), HEK 293T; conditions: Homo sapiens, HEK-293T, read-out: IC50 HEK 293T

Structure (SMILES) | GI50 ([1]; NCI-60) | GI50 ([2]; NCI-60) | GI50 ([3]; NCI-60) | GI50 ([3]; NCI-60, selected value) | GI50 ([4]; NCI-60) | GI50 ([4]; NCI-60, selected value) | GI50 ([5]; NCI-60) | GI50 ([5]; NCI-60, selected value) | GI50 ([6]; NCI-60) | GI50 ([7]; NCI-60) | GI50 ([8]; NCI-60) | GI50 ([8]; NCI-60, selected value) | IC50 ([10]; 72 h) | IC50 [11] | IC50 ([12]; 72 h) | GI50 ([1]; NCI-60, selected value) | GI50 ([2]; NCI-60, selected value) | GI50 ([6]; NCI-60, selected value) | GI50 ([7]; NCI-60, selected value) | GI50 ([9]; NCI-60, selected value) | other results
COC(=O)[C@@H](C)C[C@H](Cc1ccccc1)NC(=O)c1csc([C@@H](C[C@H](C(C)C)N(C)C(=O)[C@@H](NC(=O)[C@H]2CCCCN2C)C2CC2)OC(C)=O)n1 [Tb20, Methyl (2S,4R)-4-(2-((1R,3R)-1-acetoxy-3-((S)-2-cyclopropyl-N-methyl-2-((R)-1-methylpiperidine-2-carboxamido)acetamido)-4-methylpentyl)thiazole-4-carboxamido)-2-methyl-5-phenylpentanoate] | 0.098 nM | 0.247 nM | 0.263 nM | 0.263 nM | 0.345 nM | 0.345 nM | 0.035 nM | 0.035 nM | 0.049 nM | 0.27 nM | 0.211 nM | 0.211 nM | 0.046 nM | < 200 nM | 0.047 nM | – | – | – | – | – | GI50 ([9]; NCI-60): 0.044 nM; IC50 [10]: 0.046 nM; IC50 [12]: 0.047 nM
COC(=O)[C@@H](C)C[C@H](Cc1ccccc1)NC(=O)c1csc([C@@H](C[C@H](C(C)C)N(C)C(=O)[C@@H](NC(=O)CN(C)C)C2CC2)OC(C)=O)n1 [Tb21, Methyl (2S,4R)-4-(2-((6S,9R,11R)-6-cyclopropyl-9-isopropyl-2,8-dimethyl-4,7,13-trioxo-12-oxa-2,5,8-triazatetradecan-11-yl)thiazole-4-carboxamido)-2-methyl-5-phenylpentanoate] | – | – | – | 23.9 nM | – | 24.1 nM | – | 2.23 nM | – | – | – | 34.6 nM | 16.8 nM | > 50 nM | > 10 nM | 1.65 nM | 6.62 nM | 5.79 nM | 23.2 nM | 4.04 nM | –
CC[C@H](C)[C@H](NC(=O)C12CC(NC(C)=O)(C1)C2)C(=O)N(C)[C@H](C[C@@H](OC(C)=O)c1nc(C(=O)N[C@@H](Cc2ccccc2)C[C@H](C)C(=O)OC)cs1)C(C)C [Tb7, Methyl (2S,4R)-4-(2-((1R,3R)-3-((2S,3S)-2-(3-acetamidobicyclo[1.1.1]pentane-1-carboxamido)-N,3-dimethylpentanamido)-1-acetoxy-4-methylpentyl)thiazole-4-carboxamido)-2-methyl-5-phenyl-pentanoate] | – | – | – | 61.3 nM | – | 219 nM | – | 31.4 nM | – | – | – | 105 nM | > 50 nM | > 50 nM | > 50 nM | 17.6 nM | 57.8 nM | 48.5 nM | 134 nM | 42.8 nM | –
CNC12C3C4C1C1C2C3C41C(=O)N[C@H](C(=O)N(C)[C@H](C[C@@H](OC(C)=O)c1nc(C(=O)N[C@@H](Cc2ccccc2)C[C@H](C)C(=O)OC)cs1)C(C)C)C1CC1 (stereo partly drawn) [Tb23, Methyl (2S,4R)-4-(2-((1R,3R)-1-acetoxy-3-((S)-2-cyclopropyl-N-methyl-2-(4-(methylamino)cubane-1-carboxamido)acetamido)-4-methylpentyl)thiazole-4-carboxamido)-2-methyl-5-phenylpentanoate] | – | – | – | 204 nM | – | 119 nM | – | 45.1 nM | – | – | – | 308 nM | > 50 nM | > 50 nM | > 50 nM | 16.3 nM | 84.5 nM | 54.9 nM | 181 nM | 44.7 nM | –
CCC(C)[C@H](NC(=O)[C@H]1CCCCN1C)C(=O)N(C)[C@H](C[C@@H](OC(C)=O)c1nc(C(=O)NC23C4C5C2C2C3C4C52C(=O)OC)cs1)C(C)C (stereo in doubt) [Tb11, Methyl 4-(2-((1R,3R)-1-acetoxy-3-((2S,3S)—N,3-dimethyl-2-((R)-1-methylpiperidine-2-carboxamido)-pentanamido)-4-methylpentyl)thiazole-4-carboxamido)cubane-1-carboxylate] | 0.159 nM | 0.331 nM | 1.14 nM | 1.14 nM | 1.15 nM | 1.15 nM | 0.349 nM | 0.349 nM | 0.489 nM | 0.768 nM | 1.13 nM | 1.13 nM | 0.84 nM | > 50 nM | 0.26 nM | – | – | – | – | – | GI50 ([9]; NCI-60): 0.428 nM
CC[C@H](C)[C@H](NC(=O)[C@H]1CCCCN1C)C(=O)N(C)[C@H](C[C@@H](OC(C)=O)c1nc(C(=O)N[C@@H](Cc2ccccc2)C[C@H](C)C(=O)OC)cs1)C(C)C [Tb2, Methyl (2S,4R)-4-(2-((1R,3R)-1-acetoxy-3-((2S,3S)—N,3-dimethyl-2-((R)-1-methylpiperidine-2-carbo-xamido)pentanamido)-4-methylpentyl)thiazole-4-carboxamido)-2-methyl-5-phenylpentanoate] | – | – | – | 0.158 nM | – | 0.219 nM | – | 0.03 nM | – | – | – | 0.162 nM | 0.2 nM | > 10 nM | 0.03 nM | 0.078 nM | 0.28 nM | 0.042 nM | 0.218 nM | 0.043 nM | IC50 [10]: 0.2 nM; IC50 [12]: 0.03 nM
CCC(C)[C@H](NC(=O)CN(C)C)C(=O)N(C)[C@H](C[C@@H](OC(C)=O)c1nc(C(=O)NC23C4C5C2C2C3C4C52C(=O)OC)cs1)C(C)C (stereo in doubt) [Tb13, Methyl 4-(2-((6S,9R,11R)-6-((S)-sec-butyl)-9-isopropyl-2,8-dimethyl-4,7,13-trioxo-12-oxa-2,5,8-triaza-tetradecan-11-yl)thiazole-4-carboxamido)cubane-1-carboxylate] | – | – | – | 122 nM | – | 117 nM | – | 40.2 nM | – | – | – | 167 nM | > 50 nM | > 50 nM | > 50 nM | 13.8 nM | 142 nM | 111 nM | 167 nM | 136 nM | –
CC[C@H](C)[C@H](NC(=O)NC(C)(C)C)C(=O)N(C)[C@H](C[C@@H](OC(C)=O)c1nc(C(=O)N[C@@H](Cc2ccccc2)C[C@H](C)C(=O)OC)cs1)C(C)C [Tb6, Methyl (2S,4R)-4-(2-((6S,9R,1R)-6-((S)-sec-butyl)-9-isopropyl-2,2,8-trimethyl-4,7,13-trioxo-12-oxa-3,5,8-triazatetradecan-11-yl)thiazole-4-carboxamido)-2-methyl-5-phenylpentanoate] | – | – | – | 339 nM | – | 439 nM | – | 83.9 nM | – | – | – | 689 nM | > 50 nM | > 50 nM | > 50 nM | 286 nM | 164 nM | 127 nM | 154 nM | 71.4 nM | –
CC[C@H](C)[C@H](NC(=O)N[C@@H](C)c1ccccc1)C(=O)N(C)[C@H](C[C@@H](OC(C)=O)c1nc(C(=O)N[C@@H](Cc2ccccc2)C[C@H](C)C(=O)OC)cs1)C(C)C [Tb4, (2S,4R)-Methyl 4-(2-((2S,6S,9R,1 IR)-6-((S)-sec-butyl)-9-isopropyl-8-methyl-4,7,13-trioxo-2-phenyl-12-oxa-3,5,8-tri-azatetradecan-11-yl)thiazole-4-carboxamido)-2-methyl-5-phenylpentanoate] | – | – | – | > 1000 nM | – | > 1000 nM | – | > 1000 nM | – | – | – | > 1000 nM | > 50 nM | > 50 nM | > 50 nM | > 1000 nM | > 1000 nM | > 1000 nM | > 1000 nM | > 1000 nM | –
CCC(C)[C@H](NC(=O)[C@H]1CCCCN1C)C(=O)N(C)[C@H](C[C@@H](OC(C)=O)c1nc(C(=O)NC23CC(C(=O)OC)(C2)C3)cs1)C(C)C (stereo in doubt) [Tb14, Methyl 3-(2-((1R,3R)-1-acetoxy-3-((2S,3S)—N,3-dimethyl-2-((R)-1-methylpiperidine-2-carboxamido)-pentanamido)-4-methylpentyl)thiazole-4-carboxamido)bicyclo[1.1.1]pentane-1-carboxylate] | 0.064 nM | 0.156 nM | 0.433 nM | 0.433 nM | 0.382 nM | 0.382 nM | 0.137 nM | 0.137 nM | 0.256 nM | 0.364 nM | 0.449 nM | 0.449 nM | 0.35 nM | > 50 nM | 0.11 nM | – | – | – | – | – | GI50 ([9]; NCI-60): 0.267 nM; IC50 [10]: 0.35 nM; IC50 [12]: 0.11 nM
